≈ marks a conversion by molar mass, not a printed value.
Conditions: buffer; pH 7.4; 200.0 µM

| SMILES | solubility kinetic [µg/mL] |
| --- | --- |
| Cc1ccc2c(c1)c1c(n2CC(O)CN2CCC(C)CC2)CCCC1 (stereo not drawn) | 44.4 (≈ 130 µM) |
| Cc1csc2c(NC3CCN(Cc4ccccc4)CC3)ncnc12 | 41.5 (≈ 123 µM) |
| COC(=O)CSc1nc(NC(C)C)nc(N(C)C)n1 | 36.6 (≈ 128 µM) |
| Cc1ccccc1OC(C)C(=O)N1CCN(c2ccccn2)CC1 (stereo not drawn) | > 48.8 |
| Cc1ccc(C(=O)NCC(=O)N2CCN(c3cccc(Cl)c3)CC2)s1 | 2.8 (≈ 7.41 µM) |
| Nc1nc(-c2ccccc2)cc(-c2ccccc2)n1 | 2.6 (≈ 10.5 µM) |
| COc1ccccc1CNCc1ccc(OC)c2ccccc12 | 33.7 (≈ 110 µM) |
| CC1c2cccn2CCN1S(=O)(=O)c1ccccc1 (stereo not drawn) | 40.3 (≈ 146 µM) |
| O=C(CCC(=O)c1cccs1)NCc1ccccc1Cl | 45.4 (≈ 147 µM) |
| CCn1c(SCC(=O)O)nc2ccccc21 | > 35.4 |
| CC(C)c1ccc(NC(=S)Nc2ccc3[nH]c(=O)[nH]c3c2)cc1 | 16.7 (≈ 51.2 µM) |
| Cc1cc(C)nc(Nc2ccc(Cl)cc2C)n1.Cl | 21.2 |
| O=C(CCC(=O)N1CCCCCC1)Nc1ccc([N+](=O)[O-])cc1 | 9.2 (≈ 28.8 µM) |
| CN(Cc1ccccc1)C(=O)COC(=O)c1cc(=O)[nH]c2ccccc12 | 34.4 (≈ 98.2 µM) |
| CN(C)c1ccc(Nc2cc(Cl)ncn2)cc1 | 9 (≈ 36.2 µM) |
| Cc1cc(C(=O)COC(=O)c2cccn2C)c(C)n1Cc1ccco1 | 2.8 (≈ 8.23 µM) |
| Cc1cc(C)c(NC(=O)CSCc2c(C)noc2C)c(C)c1 | 28.1 (≈ 88.2 µM) |
| c1ccc(C2Nc3ccccc3C3OCCCC23)cc1 (stereo not drawn) | 7.3 (≈ 27.5 µM) |
| O=S1(=O)CCN2C=C(Cl)C=C(Cl)C2=N1 | > 38 |
| Brc1ccc(-c2cnco2)cc1 | 2.2 (≈ 9.82 µM) |
| O=c1c2[nH]c3ccc(F)cc3c2ncn1CCC1=CCCCC1 | < 0.2 |
| Cc1ccc(S(=O)(=O)N(C)CC(=O)OCC(=O)NCCc2ccc(S(N)(=O)=O)cc2)cc1 | > 72.5 |
| COc1ccccc1N/C(N)=N/c1nc(C)cc(C)n1 | 38.2 (≈ 141 µM) |
| CC(CCc1ccccc1)NC(=O)CCNC(=O)c1ccccc1Cl (stereo not drawn) | 12.3 (≈ 34.3 µM) |
| Cc1ccc(C)c(-c2csc(Nc3ncccn3)n2)c1 | 0.2 (≈ 0.708 µM) |

| SMILES | solubility kinetic [µg/mL] |
| --- | --- |
| Cc1ccc2nc(-c3ccncc3)cc(C(=O)NCc3ccccc3F)c2c1 | 2.5 (≈ 6.73 µM) |
| Cc1cccc(-n2c(O)c(C=NCCN3CCCCC3)c(=O)[nH]c2=O)c1 | > 53.5 |
| Cc1ccc2c(C(=O)CN3CCCCC3)c(C)[nH]c2c1 | > 40.6 |
| COc1ccc(NS(=O)(=O)c2cn(C)cn2)c(OC)c1 | > 44.6 |
| COc1ccc(/C=C/C(=O)c2cc3c(cc2N)OCO3)cc1 | 1.6 (≈ 5.38 µM) |
| COc1ccc(NC(=O)Cc2ccc(C)c(C)c2)cc1S(=O)(=O)N1CCCCC1 | 12.8 (≈ 30.7 µM) |
| Clc1cc2nc[nH]c2cc1Cl | > 28.1 |
| COc1ccc(N=Cc2c(O)n(C)c(=O)n(C)c2=O)cc1 | 11.1 (≈ 38.4 µM) |
| CCOc1ccc(NC(=O)COc2ccc3c(c2)OCO3)cc1 | 5.7 (≈ 18.1 µM) |
| Cc1cccc(OCC(O)Cn2ccnc2C)c1 (stereo not drawn) | 33.2 (≈ 135 µM) |
| Cc1ccc(C)c(NC(=O)c2nc(Cl)ccc2Cl)c1 | 3.2 (≈ 10.8 µM) |
| O=C(CCCOc1ccc(Cl)cc1Cl)Nc1ccccn1 | 0.6 (≈ 1.85 µM) |
| O=C(O)CCC(=O)N(Cc1ccccc1)Cc1ccccc1 | > 44.6 |
| COC(=O)c1cc(-c2cccs2)nc2ccccc12 | 9.6 (≈ 35.6 µM) |
| Nc1nc(O)c(Sc2ccccc2[N+](=O)[O-])c(=O)[nH]1 | > 42 |
| O=C(CNC(=O)c1ccccc1)NCc1nc2ccccc2[nH]1 | 39.4 (≈ 128 µM) |
| C=CCNc1nc(C(=O)OC(C)C(=O)c2ccc(C)cc2)cs1 (stereo not drawn) | 8.8 (≈ 26.6 µM) |
| CCCCCc1cc(O)c2c3c(c(=O)oc2c1)CN(C)CC3 | < 0.6 |
| COC(=O)CN1C(=O)N/C(=C/c2cc(OC)c(OC)cc2C)C1=O | 46.9 (≈ 140 µM) |
| Br.N=C(N)SCCc1cccc(CCSC(=N)N)c1 | > 66.6 |
| O=C(c1cc2cc([N+](=O)[O-])ccc2s1)N1CCOCC1 | 16.2 (≈ 55.4 µM) |
| NC1C2CN3CCN(C2)CC1(c1ccccc1)C3 (stereo not drawn) | > 36.5 |
| CSc1ccc(-c2nc(CN(C)C3CCOC3)c(C)o2)cc1 (stereo not drawn) | 47.1 (≈ 148 µM) |
| CCC(C)c1ccc(NC(=O)C2CC3CCC2C3)cc1 (stereo not drawn) | 1.3 (≈ 4.79 µM) |
| COc1ccc(S(=O)(=O)N2CCCC2)cc1OC | 32.7 (≈ 121 µM) |

| SMILES | solubility kinetic [µg/mL] |
| --- | --- |
| CC(Oc1ccc(C#N)cc1)C(=O)NC1CCCC1 (stereo not drawn) | > 38.7 |
| Cc1ccc(Cn2c(CCCO)nc3ccccc32)cc1 | 34.5 (≈ 123 µM) |
| Cc1onc(-c2ccccc2Cl)c1C(=O)N1CCCCC1C (stereo not drawn) | 45.8 (≈ 144 µM) |
| Cc1cc(C(=O)Nc2ccc3ccccc3c2)oc1C | 3.8 (≈ 14.3 µM) |
| CCC(=O)N1CC(=O)Nc2ccc(F)cc2C1c1ccc(F)cc1 (stereo not drawn) | > 49.6 |
| O=S(=O)(NC1Cc2ccccc2C1)c1ccccc1 | > 41 |
| CC(=O)c1cccc(NC(=S)Nc2ccc(F)cc2)c1 | 30.3 (≈ 105 µM) |
| CCOC(=O)/C=C1\SCC(=O)N1CC(=O)N1CCOCC1 | > 47.2 |
| CCCCn1c(O)c(C(C)=NCc2cccnc2)c(=O)[nH]c1=O | > 47.5 |
| CCOc1ccc(Br)cc1S(=O)(=O)Nc1cccnc1 | 1.4 (≈ 3.92 µM) |
| COC(=O)c1cc(C(=O)c2cc(Cl)ccc2O)coc1=N | 41.9 (≈ 136 µM) |
| O=C(O)c1ccc2c(c1)C(=O)N(Cc1ccco1)C2=O | > 40.7 |
| Cc1ccccc1C(=O)Nc1ccc(N2CCCC2)cc1.Cl | 7.8 |
| Brc1cc(Br)cc(CN2CCSCC2)c1 | < 0.8 |
| CC1(C)C(=O)Nc2ccccc2N1C(=O)c1ccc([N+](=O)[O-])cc1 | 2.3 (≈ 7.07 µM) |
| O=C(O)Cc1c(-c2ccccc2)c2cc(Cl)ccc2[nH]c1=O | > 47.1 |
| O=C(COc1ccc(Nc2ccccc2)cc1)Nc1ccncc1 | 9.2 (≈ 28.8 µM) |
| Nc1ccc(Oc2c(Cl)cccc2Cl)nc1 | > 38.3 |
| Cl.Cn1sccc1=O | 18.4 |
| CC(=O)c1ccc(OCC(=O)NCc2ccc(F)cc2)cc1 | > 45.2 |
| Cc1ccc(C(=O)Nc2cccc(-c3nc4ncccc4o3)c2)cc1 | 1.3 (≈ 3.95 µM) |
| O=C(NC1CCN(CCc2c[nH]c3ccccc23)CC1)c1ccccc1 | 51.7 (≈ 149 µM) |
| CCOc1nc(-c2ccccc2)c2cc(Br)ccc2n1 | < 0.4 |
| O=C(COc1ccccc1Cl)NCCCNC(=O)c1cnccn1 | 51.5 (≈ 148 µM) |
| COc1cc(C(=O)Oc2cccnc2)cc(OC)c1OC.Cl | > 48.9 |

| SMILES | solubility kinetic [µg/mL] |
| --- | --- |
| O=C(/C=C/c1c(F)cccc1Cl)N1CCc2ccccc2C1 | 5.9 (≈ 18.7 µM) |
| Cc1ccc(C(C)NC(=S)NC2CCCCC2)cc1C (stereo not drawn) | 7.8 (≈ 26.9 µM) |
| COc1ccc(C(=O)/C=C/Nc2ccccn2)c(OC)c1 | 4.2 (≈ 14.8 µM) |
| O=C(COC(=O)c1cccc(C(F)(F)F)c1)NC(=O)NC1CCCC1 | 5.2 (≈ 14.5 µM) |
| CCOc1ccccc1OCCN1CCCC1 | 24.1 (≈ 102 µM) |
| O=C(CSC1=NCCN1)Nc1ccccc1[N+](=O)[O-] | > 42 |
| COc1ccc2nc(SCC(=O)NC3CCCC3)c(C)cc2c1 | < 0.4 |
| Cc1cc(C(=O)NC2CCCCC2)on1 | > 31.2 |
| Cc1ccccc1NC(=O)CCOc1ccccc1 | > 38.3 |
| O=S(=O)(NCc1ccc2c(c1)OCO2)c1cccc(F)c1 | > 46.4 |
| O=C(NCCCNC(=O)c1ccccc1Cl)c1cnccn1 | 43.5 (≈ 136 µM) |
| Cc1cc(NC(=O)CN2C(=O)NC(CCc3ccccc3)C2=O)no1 (stereo not drawn) | > 51.4 |
| CCOC(=O)N1CCN(S(=O)(=O)c2ccc(C)cc2)CC1 | 28.1 (≈ 90 µM) |
| O=C(NC1=NCCS1)c1cccc(Br)c1 | 11.3 (≈ 39.6 µM) |
| CCCc1ccc2oc(C(=O)N3CCC(COC)C3)c(C)c2c1 (stereo not drawn) | 24.7 (≈ 78.3 µM) |
| CCCCNc1c(N)n(CC(C)C)c(=O)[nH]c1=O | 35.9 (≈ 141 µM) |
| Cc1cc(Br)cc(C=Nc2ccc(N3CCOCC3)cc2)c1O | 6.1 (≈ 16.3 µM) |
| Cc1ccc(-c2csc(N=C(N)N)n2)cc1 | 15.7 (≈ 67.6 µM) |
| O=C(NCCCN1CCOCC1)C1CC(=O)N(c2ccccc2)C1 (stereo not drawn) | > 49.7 |
| CC(=O)c1ccc(NC(=O)C2CCCO2)cc1 (stereo not drawn) | > 35 |
| O=C(NCC(c1ccco1)N1CCc2ccccc21)c1cccc(F)c1 (stereo not drawn) | 16.3 (≈ 46.5 µM) |
| CCc1ccc(C(C)NC(=O)C2CCCC2)cc1 (stereo not drawn) | 18.8 (≈ 76.6 µM) |
| CC(C)(C)c1ccc(O)c(N=Cc2c(O)ccc3ccccc23)c1 | < 0.7 |
| CN(CC(=O)N1CCOCC1)S(=O)(=O)c1ccc2ccccc2c1 | > 52.3 |
| O=c1c2ccccc2nc(Cc2ccccc2)n1-c1cccc(O)c1 | 6 (≈ 18.3 µM) |

| SMILES | solubility kinetic [µg/mL] |
| --- | --- |
| COc1ccc(NC(=O)c2ccccc2NC(=O)c2cccs2)cc1 | < 0.4 |
| O=C(NC1CCCc2ccccc21)c1ccc(F)cc1F (stereo not drawn) | 10.9 (≈ 37.9 µM) |
| CC1CC(C)CN(C(=O)Cc2c(C(=O)O)[nH]c3ccc(Cl)cc23)C1 (stereo not drawn) | > 52.3 |
| O=C(c1cccc(C(F)(F)F)c1)N1CCN(CCc2ccccc2)CC1 | > 54.4 |
| Cc1ccc(NC(=O)CN(C)CC(=O)Nc2ccccc2C#N)cc1 | > 50.5 |
| CC(=O)c1cccc(NC(=O)c2ccc3c(c2)OCO3)c1 | 2.2 (≈ 7.77 µM) |
| COc1cccc(OC)c1C(=O)OCC(=O)NCc1ccco1 | > 47.9 |
| COc1ccccc1C(=O)NCC(=O)NCCc1ccc(Cl)cc1 | 38.8 (≈ 112 µM) |
| C=CCn1cc(Cl)cc(C(=O)Nc2ccccc2)c1=O | 6.9 (≈ 23.9 µM) |
| CCN(CC(=O)NC(C)C)C(=O)c1cc(S(=O)(=O)N2CCCCC2)ccc1N1CCCCC1 | 10.7 (≈ 22.4 µM) |
| CCCC12CN3CC(C)(CN(C1)C3c1ccc([N+](=O)[O-])o1)C2=O (stereo not drawn) | > 47.9 |
| O=C(Nc1nccs1)C1CC(=O)N(CCc2ccc(F)cc2)C1 (stereo not drawn) | > 50 |
| CCC(=NCCc1ccccc1)c1c(O)[nH]c(=O)[nH]c1=O | > 43.1 |
| O=S(=O)(Nc1ccccc1)c1cccc2nsnc12 | 39.8 (≈ 137 µM) |
| O=S(=O)(c1ccc(F)cc1)N1CCc2ccccc21 | 18.9 (≈ 68.2 µM) |
| CCN=C1S/C(=C\c2cc(Br)c(O)c(OC)c2)C(=O)N1CC | 1.3 (≈ 3.37 µM) |
| O=C(O)c1ccc(CNC(=O)c2ccc3c(c2)OCCO3)cc1 | > 47 |
| COC(=O)c1ccc(C(=O)OC)c(NC(=O)C(C)(C)C)c1 | 3.9 (≈ 13.3 µM) |
| COc1cccc(OC)c1OCCN1CCCC1 | 32.4 (≈ 129 µM) |
| CC(C)(C)c1ccccc1NC(=S)NC1CCCCC1 | 2.5 (≈ 8.61 µM) |
| O=[N+]([O-])c1cccc(C(=NCc2ccccc2)NO)c1 | > 40.7 |
| CCCCNS(=O)(=O)c1cc2c3c(c1)CCN3C(=O)CC2 | 44.3 (≈ 144 µM) |
| CN(C)c1ccc(/C=N/O)cc1 | > 24.6 |
